Assay results published in PubChem BioAssay AID330 (DTP/NCI, 2004).
Several values for one entry are separate records, joined by “and”; a condition that tells them apart may be missing. Equal entries are not always repeated. Toxic doses and inconclusive results are not listed.

System: P388 leukemia ip, CD2F1 mice, survival T/C
Assay: NCI In Vivo Anticancer Drug Screen. Data for tumor model P388 Leukemia (intraperitoneal) in CD2F1 (CDF1) mice
Settings: endpoint: median survival time, higher = longer survival
Procedure, shortened: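 Mice carrying the transplanted tumor received test compound or vehicle. Survival was recorded in each group, and the value is the treated-group measurement divided by that of the vehicle-treated control group.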

[1] = dose: 12.5 mg/kg/injection, schedule: Q01DX009 (ip), vehicle: Klucel (hydroxypropylcellulose) (HPC)
[2] = dose: 25.0 mg/kg/injection, schedule: Q01DX009 (ip), vehicle: Klucel (hydroxypropylcellulose) (HPC)
[3] = dose: 50.0 mg/kg/injection, schedule: Q01DX009 (ip), vehicle: Klucel (hydroxypropylcellulose) (HPC)
[4] = dose: 100.0 mg/kg/injection, schedule: Q01DX009 (ip), vehicle: Klucel (hydroxypropylcellulose) (HPC)
[5] = dose: 50.0 mg/kg/injection, schedule: Q04DX003 (ip), vehicle: saline with Tween-80
[6] = dose: 100.0 mg/kg/injection, schedule: Q04DX003 (ip), vehicle: saline with Tween-80
[7] = dose: 200.0 mg/kg/injection, schedule: Q04DX003 (ip), vehicle: saline with Tween-80
[8] = dose: 25.0 mg/kg/injection, schedule: Q01DX009 (ip), vehicle: saline
[9] = dose: 50.0 mg/kg/injection, schedule: Q01DX009 (ip), vehicle: saline
[10] = dose: 25.0 mg/kg/injection, schedule: Q01DX009 (ip), vehicle: saline with Tween-80
[11] = dose: 50.0 mg/kg/injection, schedule: Q01DX009 (ip), vehicle: saline with Tween-80
[12] = dose: 100.0 mg/kg/injection, schedule: Q01DX009 (ip), vehicle: saline with Tween-80
[13] = dose: 200.0 mg/kg/injection, schedule: Q01DX009 (ip), vehicle: saline with Tween-80
[14] = dose: 100.0 mg/kg/injection, schedule: Q01DX001 (ip), vehicle: Klucel (hydroxypropylcellulose) (HPC)
[15] = dose: 200.0 mg/kg/injection, schedule: Q01DX001 (ip), vehicle: Klucel (hydroxypropylcellulose) (HPC)
[16] = dose: 400.0 mg/kg/injection, schedule: Q01DX001 (ip), vehicle: Klucel (hydroxypropylcellulose) (HPC)

Structure (SMILES): CN(C)CCCN=c1c2ccccc2n(C)c2[nH]c(=O)n(C)c(=O)c12
- T/C (dose: 7.5 mg/kg/injection, schedule: Q01DX005 (ip), vehicle: saline): 107 % of control
- T/C (dose: 15.0 mg/kg/injection, schedule: Q01DX005 (ip), vehicle: saline): 124 % of control
- T/C (dose: 60.0 mg/kg/injection, schedule: Q01DX005 (ip), vehicle: saline): 123 % of control

Structure (SMILES): Cc1cccc(Cl)c1NC(=O)CCl
- T/C [1]: 101 % of control
- T/C [2]: 101 % of control
- T/C [3]: 93 % of control
- T/C [4]: 101 % of control

Structure (SMILES): CCc1c(-c2ccccc2)nc(N(C)C)oc1=O
- T/C (dose: 60.0 mg/kg/injection, schedule: Q01DX005 (ip), vehicle: saline with Tween-80): 106 % of control
- T/C (dose: 120.0 mg/kg/injection, schedule: Q01DX005 (ip), vehicle: saline with Tween-80): 100 % of control
- T/C (dose: 240.0 mg/kg/injection, schedule: Q01DX005 (ip), vehicle: saline with Tween-80): 98 % of control

Structure (SMILES): CC([NH-])CC(C)[NH-].[Br][Pt+2][Br] (centres undefined)
- T/C (dose: 6.25 mg/kg/injection, schedule: Q04DX002 (ip), vehicle: saline with Tween-80): 154 % of control and 171 % of control and 159 % of control
- T/C (dose: 12.5 mg/kg/injection, schedule: Q04DX002 (ip), vehicle: saline with Tween-80): 188 % of control and 183 % of control and 186 % of control

Structure (SMILES): CC(C)N(C(=S)/N=C1/SCS(=O)(=O)N1Cc1ccccc1)C(C)C
- T/C [5]: 97 % of control
- T/C [6]: 95 % of control
- T/C [7]: 98 % of control

Structure (SMILES): CC(=O)CC(C)(C)C1CCCCC1
- T/C (dose: 12.5 mg/kg/injection, schedule: Q01DX009 (ip), vehicle: water): 116 % of control
- T/C (dose: 25.0 mg/kg/injection, schedule: Q01DX009 (ip), vehicle: water): 108 % of control
- T/C (dose: 50.0 mg/kg/injection, schedule: Q01DX009 (ip), vehicle: water): 103 % of control
- T/C (dose: 100.0 mg/kg/injection, schedule: Q01DX009 (ip), vehicle: water): 107 % of control
- T/C (dose: 200.0 mg/kg/injection, schedule: Q01DX009 (ip), vehicle: water): 104 % of control

Structure (SMILES): CCCS(=O)(=O)Nc1ccc(Nc2c3ccccc3nc3ccccc23)c(OC)c1
- T/C (dose: 6.25 mg/kg/injection, schedule: Q01DX009 (ip), vehicle: saline): 118 % of control
- T/C [8]: 150 % of control and 160 % of control
- T/C [9]: 150 % of control

Structure (SMILES): CS(=O)(=O)CC(=O)c1ccccc1
- T/C [10]: 101 % of control and 106 % of control
- T/C [11]: 97 % of control
- T/C [12]: 111 % of control and 106 % of control
- T/C [13]: 103 % of control and 111 % of control

Structure (SMILES): COc1cc2c(cc1OC)C[N+]1(C)CCc3cc(OC)c(OC)cc3C1C2 (centres undefined)
- T/C (dose: 10.0 mg/kg/injection, schedule: Q01DX009 (ip), vehicle: saline): 111 % of control
- T/C (dose: 20.0 mg/kg/injection, schedule: Q01DX009 (ip), vehicle: saline): 111 % of control

Structure (SMILES): O=c1c2[nH]c3ccccc3sc=2c(=O)n1-c1ccc(Cl)c(Cl)c1Cl
- T/C (dose: 100.0 mg/kg/injection, schedule: Q04DX002 (ip), vehicle: saline with Tween-80): 100 % of control
- T/C (dose: 200.0 mg/kg/injection, schedule: Q04DX002 (ip), vehicle: saline with Tween-80): 97 % of control
- T/C (dose: 400.0 mg/kg/injection, schedule: Q04DX002 (ip), vehicle: saline with Tween-80): 100 % of control

Structure (SMILES): O=C(NCC(=O)N1CCCC1)N/N=C/c1ccccc1O
- T/C (dose: 50.0 mg/kg/injection, schedule: Q01DX005 (ip), vehicle: Klucel (hydroxypropylcellulose) (HPC)): 102 % of control
- T/C (dose: 100.0 mg/kg/injection, schedule: Q01DX005 (ip), vehicle: Klucel (hydroxypropylcellulose) (HPC)): 102 % of control
- T/C (dose: 200.0 mg/kg/injection, schedule: Q01DX005 (ip), vehicle: Klucel (hydroxypropylcellulose) (HPC)): 98 % of control

Structure (SMILES): CCn1c2c(c3ccccc31)CCSC2(C)CCN(C)C (centres undefined)
- T/C [10]: 105 % of control
- T/C [11]: 96 % of control
- T/C [12]: 117 % of control

Structure (SMILES): N#[N+]c1c([O-])ccc2ccccc12
- T/C (dose: 25.0 mg/kg/injection, schedule: Q04DX002 (ip), vehicle: Klucel (hydroxypropylcellulose) (HPC)): 92 % of control
- T/C (dose: 50.0 mg/kg/injection, schedule: Q04DX002 (ip), vehicle: Klucel (hydroxypropylcellulose) (HPC)): 104 % of control
- T/C (dose: 100.0 mg/kg/injection, schedule: Q04DX002 (ip), vehicle: Klucel (hydroxypropylcellulose) (HPC)): 90 % of control

Structure (SMILES): CNc1c([N+](=O)[O-])cc2[nH]c(C)nc2c1[N+](=O)[O-]
- T/C (dose: 6.25 mg/kg/injection, schedule: Q04DX003 (ip), vehicle: saline with Tween-80): 103 % of control
- T/C (dose: 12.5 mg/kg/injection, schedule: Q04DX003 (ip), vehicle: saline with Tween-80): 113 % of control
- T/C (dose: 25.0 mg/kg/injection, schedule: Q04DX003 (ip), vehicle: saline with Tween-80): 99 % of control and 92 % of control

Structure (SMILES): CNc1nnnc2c1sc1ccccc12
- T/C (dose: 100.0 mg/kg/injection, schedule: Q01DX001 (ip), vehicle: saline with Tween-80): 105 % of control
- T/C (dose: 200.0 mg/kg/injection, schedule: Q01DX001 (ip), vehicle: saline with Tween-80): 102 % of control
- T/C (dose: 400.0 mg/kg/injection, schedule: Q01DX001 (ip), vehicle: saline with Tween-80): 104 % of control

Structure (SMILES): COC1=CC(=O)C([C@@H]2COc3cc(O)ccc3C2)=CC1=O
- T/C (dose: 3.75 mg/kg/injection, schedule: Q01DX009 (ip), vehicle: Klucel (hydroxypropylcellulose) (HPC)): 95 % of control
- T/C (dose: 7.5 mg/kg/injection, schedule: Q01DX009 (ip), vehicle: Klucel (hydroxypropylcellulose) (HPC)): 99 % of control
- T/C (dose: 15.0 mg/kg/injection, schedule: Q01DX009 (ip), vehicle: Klucel (hydroxypropylcellulose) (HPC)): 95 % of control
- T/C (dose: 30.0 mg/kg/injection, schedule: Q01DX009 (ip), vehicle: Klucel (hydroxypropylcellulose) (HPC)): 98 % of control

Structure (SMILES): C[n+]1ccccc1/C=C/c1ccc2c(c1)OCO2
- T/C (dose: 6.25 mg/kg/injection, schedule: Q01DX009 (ip), vehicle: Klucel (hydroxypropylcellulose) (HPC)): 102 % of control
- T/C [1]: 98 % of control
- T/C [2]: 110 % of control
- T/C [3]: 114 % of control

Structure (SMILES): O=C(CC(O)(C(F)(F)Cl)C(F)(F)Cl)c1ccco1
- T/C [5]: 109 % of control
- T/C [6]: 118 % of control
- T/C [7]: 100 % of control

Structure (SMILES): OC1CCC(C2C3CCCCC3C3CCCCC3C2C2CCC(O)CC2)CC1 (centres undefined)
- T/C (dose: 50.0 mg/kg/injection, schedule: Q01DX005 (ip), vehicle: saline with Tween-80): 99 % of control
- T/C (dose: 100.0 mg/kg/injection, schedule: Q01DX005 (ip), vehicle: saline with Tween-80): 99 % of control

Structure (SMILES): COc1cc(CCl)c(I)c(OC)c1OC
- T/C [14]: 103 % of control
- T/C [15]: 107 % of control
- T/C [16]: 102 % of control

Structure (SMILES): [Br][Ga]([Br])[Br]
- T/C [8]: 115 % of control
- T/C [9]: 100 % of control
- T/C (dose: 100.0 mg/kg/injection, schedule: Q04DX003 (ip), vehicle: saline sonified): 100 % of control

Structure (SMILES): Cc1cccc(C2(Br)C(=O)c3ccccc3C2=O)c1
- T/C (dose: 100.0 mg/kg/injection, schedule: Q04DX002 (ip), vehicle: saline): 102 % of control
- T/C (dose: 200.0 mg/kg/injection, schedule: Q04DX002 (ip), vehicle: saline): 103 % of control
- T/C (dose: 400.0 mg/kg/injection, schedule: Q04DX002 (ip), vehicle: saline): 102 % of control

Structure (SMILES): Cc1ncc([N+](=O)[O-])n1CCOC(N)=O
- T/C [3]: 100 % of control
- T/C [4]: 99 % of control
- T/C (dose: 200.0 mg/kg/injection, schedule: Q01DX009 (ip), vehicle: Klucel (hydroxypropylcellulose) (HPC)): 99 % of control

Structure (SMILES): O=C(c1ccccc1)c1cccs1
- T/C (dose: 22.0 mg/kg/injection, schedule: Q01DX009 (ip), vehicle: saline with Tween-80): 113 % of control
- T/C (dose: 44.0 mg/kg/injection, schedule: Q01DX009 (ip), vehicle: saline with Tween-80): 104 % of control
- T/C (dose: 88.0 mg/kg/injection, schedule: Q01DX009 (ip), vehicle: saline with Tween-80): 109 % of control

Structure (SMILES): Cc1ccc(S(=O)(=O)NC(=O)Nc2ncn[nH]2)cc1
- T/C [11]: 99 % of control
- T/C [12]: 98 % of control
- T/C [13]: 104 % of control

Structure (SMILES): CN1C(=O)Cn2c(nn(Cc3ccccc3)c(=O)c2=O)-c2cc(Cl)ccc21
- T/C [14]: 96 % of control
- T/C [15]: 101 % of control
- T/C [16]: 99 % of control

Structure (SMILES): COC(=O)C(Cc1cnc2nc(N)nc(N)c2n1)C(=O)OC
- T/C (dose: 25.0 mg/kg/injection, schedule: Q01DX009 (ip), vehicle: distilled water + Tween-80): 104 % of control
- T/C (dose: 50.0 mg/kg/injection, schedule: Q01DX009 (ip), vehicle: distilled water + Tween-80): 104 % of control
- T/C (dose: 100.0 mg/kg/injection, schedule: Q01DX009 (ip), vehicle: distilled water + Tween-80): 122 % of control
